In ChEMBL document CHEMBL1135309, “Tryptophanyl phosphoramidates as prodrugs of synadenol and its E-isomer: synthesis and biological activity” (2002):

Key:
[1] = Ratio of antiviral activity of HSV-1 to the ratio of cytotoxicity of Vero (EC50/CC50) against cytopathic effect inhibition assay in CEM cells; 28/>100; assay type: functional
[2] = Ratio of antiviral activity of HSV-2 to the ratio of cytotoxicity of HFF (EC50/CC50) against cytopathic effect inhibition assay; 80/433; assay type: functional
[3] = Ratio of antiviral activity of HSV-1 to the ratio of cytotoxicity of BSC-1 (EC50/CC50) against KB cells; 26/78; assay type: functional
[4] = Ratio of antiviral activity of HSV-1 to the ratio of cytotoxicity of HFF (EC50/CC50) against cytopathic effect inhibition assay; >92/433; assay type: functional
[5] = Ratio of antiviral activity of VZV to the ratio of cytotoxicity of HFF (EC50/CC50) against cytopathic effect inhibition assay; 2.5/368; assay type: functional
[6] = Ratio of antiviral activity of HSV-2 to the ratio of cytotoxicity of Vero (EC50/CC50) against cytopathic effect inhibition assay in CEM cells; 59/>100; assay type: functional
[7] = Antiviral activity against HCMV (Towne) in HFF cells by plaque reduction assay
[8] = Antiviral activity against HCMV (AD 169) in HFF cells against cytopathic effect inhibition assay; 1.0/303
[9] = Antiviral activity against HIV-1 in MT-2 cells (EC50) against cytopathic effect inhibition assay; 0.75/32
[10] = Antiviral activity against HBV in 2.2.15 cells (EC50) in HBV-DNA inhibition assay against CEM cells; 2/>100
[11] = Antiviral activity against EBV in Daudi cells (EC50) against viral capsid antigen immunofluorescence assay (VCA-IF); 3.2/368
[12] = Antitumor activity against normal cells (fibroblasts) at 500 ug/disk in disk diffusion assay; Value ranges from 0-100; assay type: functional
HCT-15 [13] = test: Antitumor activity against human HCT15 to multiple drug-resistant human colon tumor at 500 ug/disk in disk diffusion assay; Value ranges from 300-400; assay type: functional
L1210 = test: Antitumor activity against leukemia L1210 at 500 ug/disk in disk diffusion assay; assay type: functional, Mus musculus
[14] = Ratio of antiviral activity of HSV-1 to the ratio of cytotoxicity of Vero (EC50/CC50) against cytopathic effect inhibition assay in CEM cells; 31/91; assay type: functional
[15] = Ratio of antiviral activity of HSV-2 to the ratio of cytotoxicity of HFF (EC50/CC50) against cytopathic effect inhibition assay; >184/>184; assay type: functional
[16] = Ratio of antiviral activity of HIV-1to the ratio of cytotoxicity of MT-2 (EC50/CC50) against cytopathic effect inhibition assay; 1/10; assay type: functional
[17] = Ratio of antiviral activity of HSV-1 to the ratio of cytotoxicity of BSC-1 (EC50/CC50) against KB cells; 15/>100; assay type: functional
[18] = Ratio of antiviral activity of HSV-1 to the ratio of cytotoxicity of HFF (EC50/CC50) against cytopathic effect inhibition assay; >184/>184; assay type: functional
[19] = Ratio of antiviral activity of HSV-2 to the ratio of cytotoxicity of Vero (EC50/CC50) against cytopathic effect inhibition assay in CEM cells; 40/91; assay type: functional
[20] = Ratio of antiviral activity of VZV to the ratio of cytotoxicity of HFF (EC50/CC50) against cytopathic effect inhibition assay; 5.0/111; assay type: functional
[21] = Antiviral activity of HCMV (Towne)in HFF cells by plaque reduction assay
[22] = Antiviral activity against HBV in 2.2.15 cells in HBV-DNA inhibition assay
[23] = Antiviral activity against HCMV (AD 169) in HFF cells assessed by cytopathic effect inhibition assay; 5.2/90
[24] = Antiviral activity against EBV in Daudi cells against viral capsid antigen immunofluorescence assay (VCA-IF)
HCT-15 [25] = test: Antitumor activity against human HCT15 to multiple drug-resistant human colon tumor at 500 ug/disk in disk diffusion assay; assay type: functional
[26] = Ratio of antiviral activity of HSV-1 to the ratio of cytotoxicity of Vero (EC50/CC50) against cytopathic effect inhibition assay in CEM cells; >1/<10; assay type: functional
[27] = Ratio of antiviral activity of HSV-2 to the ratio of cytotoxicity of HFF (EC50/CC50) against cytopathic effect inhibition assay; 1.1/18; assay type: functional
[28] = Ratio of antiviral activity of HSV-1 to the ratio of cytotoxicity of BSC-1 (EC50/CC50) against KB cells; 2.5/0.5; assay type: functional
[29] = Ratio of antiviral activity of HSV-1 to the ratio of cytotoxicity of HFF (EC50/CC50) against cytopathic effect inhibition assay; <0.07/18; assay type: functional
[30] = Ratio of antiviral activity of VZV to the ratio of cytotoxicity of HFF (EC50/CC50) against cytopathic effect inhibition assay; 7.6/101; assay type: functional
[31] = Ratio of antiviral activity of HBV to the ratio of cytotoxicity of 2.2.15 (EC50/CC50) in HBV-DNA inhibition assay against CEM cells; 0.01/0.3; assay type: functional, CCRF-CEM
[32] = Antiviral activity against HCMV (Towne) in HFF cells by plaque reduction assay; remark: listed apart in the source
[33] = Antiviral activity against HCMV (AD 169) in HFF cells (EC50) against cytopathic effect inhibition assay
[34] = Antiviral activity against HIV-1 in MT-2 cells (EC50) against cytopathic effect inhibition assay; 0.003/0.24
[35] = Antiviral activity against EBV in Daudi cells (EC50) against viral capsid antigen immunofluorescence assay (VCA-IF); 1.0/>108

Nc1ncnc2c1ncn2/C=C1/CC1CO (stereo unspecified)
Ratio [1]: 28 | Ratio [2]: 80 | Ratio [3]: 26 | Ratio [4]: >92 | Ratio [5]: 2.5 | Ratio [6]: 59 | EC50 [7]: 2100 nM | EC50 [8]: 1000 nM | EC50 [9]: 750 nM | EC50 [10]: 2000 nM | EC50 [11]: 3200 nM

COC(=O)C(Cc1c[nH]c2ccccc12)NP(=O)(O)OCC1C/C1=C/n1cnc2c(N)ncnc21 (stereo unspecified)
Activity [12]: 0 zone units | Activity (HCT-15 [13]): 300 zone units | Activity (L1210): 0 zone units | Ratio [14]: 31 | Ratio [15]: >184 | Ratio [16]: 1 | Ratio [17]: 15 | Ratio [18]: >184 | Ratio [19]: 40 | Ratio [20]: 5 | EC50 [21]: 1500 nM | EC50 [22]: 490 nM | EC50 [23]: 5200 nM | EC50 [24]: > 18000 nM

COC(=O)C(C)NP(=O)(OCC1C/C1=C/n1cnc2c(N)ncnc21)Oc1ccccc1 (stereo unspecified)
Activity (HCT-15 [25]): 200 ug disk-1 | Ratio [26]: >1 | Ratio [27]: 1.1 | Ratio [28]: 2.5 | Ratio [29]: <0.07 | Ratio [30]: 7.6 | Ratio [31]: 0.01 | EC50 [32]: 140 nM | EC50 [33]: 1300 nM | EC50 [34]: 3 nM | EC50 [35]: 1000 nM
